Test results from patent publication US20110178105A1, “CLINICAL BENEFITS OF EICOSAPENTAENOIC ACID IN HUMANS” (E.I. DU PONT DE NEMOURS AND COMPANY, priority 2010, published 2011).
Entries after “also recorded” stand apart in the source; their conditions may differ.

Tests used:
Format in all cases: in vivo, human
[1] = Clinical study: inflammation markers, adhesion molecules, adiponectin (hsCRP, IL-6, sICAM, VCAM); settings: Fast, 6 weeks
Method: The following laboratory measurements were carried out on an automated analyzer (Roche Diagnostics, Indianapolis, Ind.) on samples obtained in the fasting state at the randomization visit, and the final visits using frozen aliquots of serum stored at −80 degrees Celsius: 1) total cholesterol; 2) triglycerides; 3) direct high density lipoprotein [“HDL”] cholesterol; 4) direct low density lipoprotein [“LDL”] cholesterol; 5) direct small dense LDL cholesterol; 6) apolipoprotein [“apo”] B; 7) apoA-I; 8) lipoprotein (a); 9) fibrinogen; 10) high sensitivity C reactive protein [“hs-CRP”]; 11) lipoprotein associated phospholipase A2 [“Lp-PLA2”]; and, 12) insulin as previously described. See, McNamara, J. R. and Schaefer, E. J., Clin. Chim. Acta, 166:1-8 (1987); Okada, M. et al., J. Lab. Clin. Med., 132:195-201 (1998); Hirano, T. et al., J. Lipid Res., 44:2193-2201 (2003); Ai, M. et al., Am. J. Cardiol., 101:315-318 (2008); Ingelsson, E. et al., JAMA, 298:776-785 (2007); Jenner, J. L. et al., Circulation, 87:1135-1141 (1993); Schaefer, E. J. et al., Am. J. Cardiol., 95:1025-1032 (2005); McNamara, J. R. et al., Atherosclerosis, 154:229-236 (2001).
Plasma apoB-48 was measured with an enzyme linked immunosorbent assay obtained from the Shibayagi Company (Gunma, Japan) (Kinoshita, M. et al., Clin. Chim. Acta, 351:115-120 (2005); Otokozawa, S. et al., Atherosclerosis, 205:197-201 (2009); Otokozawa, S. et al., Metabolism, 58(11): 1536-1542 (2009)). ICAM1 and VCAM1, interleukin-6 or IL-6, and adiponectin were all measured using commercially available enzyme linked immunoassays [“ELISA”] obtained from the R & D Corporation (Minneapolis, Minn.). All these assays have within and between run coefficients of variation of less than 10%.

[2] = Clinical study: adverse effects and safety testing
Method: The goal of this study was to test the safety and efficacy of an EPA-enriched oil (as described in Examples 1-3; E.I. duPont de Nemours & Co., Inc. Applied Biosciences, Wilmington, Del.), to corroborate the safety of a novel oil rich in EPA in humans prior to this product being placed on the market as a dietary supplement. This oil was tested at doses of 600 mg and 1800 mg of EPA/day as compared to olive oil placebo and a comparator omega-3 oil providing 600 mg of DHA/day over a 6 week period in a parallel arm design in approximately 120 healthy adults studied in both the fasting and post-prandial state. Safety was monitored by assessing for adverse reactions, measuring vital signs and a variety of laboratory tests including a complete metabolic profile, thyroid function tests, complete blood count, and prothrombin time.
Standard chemistry tests were carried at all visits (screening, enrollment, and final study visit after an overnight fast by Quest Laboratories, Cambridge, Mass.): blood urea nitrogen, creatinine, calculated glomerular filtration rate, sodium, potassium, chloride, carbon dioxide, calcium, total protein, albumin, globulin, total bilirubin, alkaline phosphatase, liver transaminases AST and ALT, and glucose. A complete blood count was also performed at all visits and included: hemoglobin, hematocrit, red blood cell count, platelet count, white blood cell count and a white blood cell count differential. Additional tests included: prothrombin time, and measurement of thyroid function including T3, T4 and T3 uptake. […]
At visit 2, subjects were again asked to fast for 12 hours, and information about subject characteristics including all vital signs, recent illness or hospitalization, medication and supplement use, and diet information was again obtained. […] Compliance and adverse events were assessed by telephone at weeks 1 and 3 by telephone and at week 6 by questionnaire and capsule count. […] Compliance was calculated as a percentage of consumed capsule count/expected capsule count based on the number of days the subject was in the study. […]

[3] = Clinical study: serum fatty acid profiles (EPA, ARA/EPA, Total Omega-3 Score); settings: 6 weeks; for Total Omega-3 Score: FIG. 4; for serum level of EPA / serum ratio of ARA/EPA (Inflammation Index): EPA 600 and 1800 mg/day, DHA 600 mg/day; for serum level of EPA: FIG. 1; for serum ratio of ARA/EPA (Inflammation Index): FIG. 3
Method: On the samples obtained 4 hours after the fat-rich meal, total cholesterol, triglycerides, direct HDL cholesterol, and direct LDL cholesterol were measured. Direct LDL cholesterol and small dense LDL cholesterol levels were measured using kits obtained from Denka-Seiken Corporation, (Tokyo, Japan), as previously described (Okada, M. et al., supra; Hirano, T. et al., supra; Ai, M. et al., supra). Remnant lipoprotein cholesterol was measured using kits obtained from Polymedco (Cortland Manor, N.Y.) and manufactured by Otsuka Corporation (Tokyo, Japan) as previously described (McNamara, J. R. et al., Atherosclerosis, supra). All lipid assays are standardized through the Lipid Research Clinics standardization program of the Centers for Disease Control (Atlanta, Ga.). All assays had between and within run coefficients of variation of <5%. Serum fatty acid profiles were analyzed by Nutrasource Diagnostics (Guelph, Ontario, Canada).

SMILES: CCC=CCC=CCC=CCC=CCC=CC/C=C\CCC(=O)O [DHA, cis-4,7, 10, 13, 16, 19-docosahexaenoic acid, reference compound]
- Adiponectin, 6-Week Change (%) ([1]; DHA 600 mg (n = 28)): −6.7 ± 19.8%
- Adiponectin, Final ([1]; DHA 600 mg (n = 28)): 11380.0 ± 14772.6 ng/mL
- IL-6, 6-Week Change (%) ([1]; DHA 600 mg (n = 28)): +5.7 ± 50.3%
- IL-6, Final ([1]; DHA 600 mg (n = 28)): 1.6 ± 0.9 pg/mL
- VCAM, 6-Week Change (%) ([1]; DHA 600 mg (n = 28)): +0.2 ± 11.0%
- VCAM, Final ([1]; DHA 600 mg (n = 28)): 673.0 ± 197.4 ng/mL
- hsCRP, 6-Week Change (%) ([1]; DHA 600 mg (n = 28)): +27.1 ± 82.3%
- hsCRP, Final ([1]; DHA 600 mg (n = 28)): 3.4 ± 4.5 mg/L
- sICAM, 6-Week Change (%) ([1]; DHA 600 mg (n = 28)): +0.7 ± 18.0%
- sICAM, Final ([1]; DHA 600 mg (n = 28)): 240.2 ± 114.1 ng/mL
- fishy odor with belching occasionally experienced (share of subjects) ([2]; DHA 600 mg group): 39%
- retroconversion of DHA to EPA [3]: no indication
- Total Omega-3 Score [3]: increased
- serum level of EPA [3]: not
- serum ratio of ARA/EPA (Inflammation Index) ([3]; listed as DHA-rich oil): no such effect

SMILES: CCC=CCC=CCC=CCC=CC/C=C\CCCC(=O)O [EPA, cis-5,8, 11, 14, 17-eicosapentaenoic acid]
- Adiponectin, 6-Week Change (%) ([1]; EPA 600 mg (n = 27)): 11.3 ± 31.4%
- Adiponectin, Final ([1]; EPA 600 mg (n = 27)): 9501.4 ± 5894.3 ng/mL
- IL-6, 6-Week Change (%) ([1]; EPA 600 mg (n = 27)): +35.3 ± 126.1%
- IL-6, Final ([1]; EPA 600 mg (n = 27)): 2.0 ± 1.8 pg/mL
- VCAM, 6-Week Change (%) ([1]; EPA 600 mg (n = 27)): +2.2 ± 12.6%
- VCAM, Final ([1]; EPA 600 mg (n = 27)): 722.8 ± 178.0 ng/mL
- hsCRP, 6-Week Change (%) ([1]; EPA 600 mg (n = 27)): +115.6 ± 508.4%
- hsCRP, Final ([1]; EPA 600 mg (n = 27)): 3.3 ± 4.9 mg/L
- sICAM, 6-Week Change (%) ([1]; EPA 600 mg (n = 27)): +3.2 ± 19.0%
- sICAM, Final ([1]; EPA 600 mg (n = 27)): 232.4 ± 62.7 ng/mL
- Adiponectin, 6-Week Change (%) ([1]; EPA 1800 mg (n = 29)): 16.4 ± 82.6%
- Adiponectin, Final ([1]; EPA 1800 mg (n = 29)): 17578.6 ± 45606.9 ng/mL
- IL-6, 6-Week Change (%) ([1]; EPA 1800 mg (n = 29)): +3.1 ± 50.1%
- IL-6, Final ([1]; EPA 1800 mg (n = 29)): 1.3 ± 0.7 pg/mL
- VCAM, 6-Week Change (%) ([1]; EPA 1800 mg (n = 29)): +1.0 ± 13.5%
- VCAM, Final ([1]; EPA 1800 mg (n = 29)): 607.5 ± 125.7 ng/mL
- hsCRP, 6-Week Change (%) ([1]; EPA 1800 mg (n = 29)): +26.0 ± 113.0%
- hsCRP, Final ([1]; EPA 1800 mg (n = 29)): 2.7 ± 4.7 mg/L
- sICAM, 6-Week Change (%) ([1]; EPA 1800 mg (n = 29)): −2.6 ± 17.1%
- sICAM, Final ([1]; EPA 1800 mg (n = 29)): 206.9 ± 50.5 ng/mL
- fishy odor with belching occasionally experienced (share of subjects) ([2]; EPA 600 mg group): 15%
- fishy odor with belching occasionally experienced (share of subjects) ([2]; EPA 1800 mg group): 28%
- metabolic conversion of EPA to DHA [3]: no indication
- Total Omega-3 Score [3]: increased
- serum level of EPA [3]: significantly raised
- serum ratio of ARA/EPA (Inflammation Index) ([3]; listed as EPA substantially free of DHA): significantly decreased
- serum ratio of ARA/EPA (Inflammation Index) ([3]; listed as EPA-rich oil): dose-related decrease; also recorded: significantly decreased
